The numbers were not newly measured in patent US7625898B2, “Posaconazole polymer conjugates and methods of treatment using posaconazole and polymer conjugates thereof” (Enzon Pharmaceuticals, Inc., priority 2007, dated 2009), which cites them from elsewhere.

The conditions of this series: background statement on unmodified posaconazole.

In the case of `CC[C@@H]([C@H](C)O)n1ncn(-c2ccc(N3CCN(c4ccc(OC[C@@H]5CO[C@@](Cn6cncn6)(c6ccc(F)cc6F)C5)cc4)CC3)cc2)c1=O` [Posaconazole, posaconazole], the water solubility was under 2 µg/mL.
